Test results from patent US8247444B2, “Anti-tumor effect of dimeric phthalide compound” (priority 2007, dated 2012).
In brackets after ≈: the same amount, converted by molar mass.

How the values were obtained:
K562 = experiment: Growth inhibition of sensitive and drug-resistant cell lines (IC50), K562; type: cell-based; settings: Homo sapiens; K562 cells
Experimental: (§1) The human lung cancer cell H1299 and H446, glioma cell U251 and U87MG, and human hepatic cellular cancer Bel-7402 cell in logarithmic growth phase were digested with pancreatic enzyme, and then suspended into DMEM or RPMI1640 containing 10% fetal bovine serum. The leukemic cells Kasumi-1 need no digestion, and were suspended into RPMI1640 containing 10% fetal bovine serum directly after centrifugalization. The cell density was adjusted to 1×10^4 cells/ml through cell counting, and the cell suspensions were seeded into a 96-well plate respectively, 100 μl/well, totally 6 groups of cells. The adherent cells were cultured overnight, the suspended cells were added different concentration gradients of dimeric phthalide compounds (S1-S6) directly, n=6 for each concentration of a single agent. The final volume was 200 ul, and the balance was supplemented with the culture medium. The plate was then incubated for 68 hours in 37° C., saturated humidity, 5% CO2 cell incubator. The medium was aspirated and 72 μl/well fresh culture medium was added. 8 μl […] (CCK-8) was added into each well and cultured for 2 hours. The absorbance was measured at 450 nm. The results were calculated as the 50% inhibiting drug concentration, i.e. IC50, using Sigmoidal simulation function by software Origin 7.0.
(§2) The cancer cells (various cell lines as shown in table 1 or FIG. 3) were seeded 1×10^3 cells per well into a 96-well plate. The suspended cells were added different concentration of dimeric phthalide compounds (S1-S6) directly, and the adherent cells were cultured overnight and added different concentration of dimeric phthalide compounds (S1-S6). The different concentration of dimeric phthalide compounds were divided into 10 groups: 0, 0.1, 0.5, 1, 5, 10, 20, 40, 80, 160 μg/ml, n=6 for each concentration.
(§3) According to the method described in Example 2, […] was detected and IC50 was calculated. The experiment was repeated for 3 times.
(§4) The growth inhibition effects of dimers of S1-S6 on its sensitive cell lines as well as the drug-resistant sub-strains (IC50 (μg/ml)) were shown in table 1 and FIG. 3.

K562/Adr = experiment: Growth inhibition of sensitive and drug-resistant cell lines (IC50), K562/Adr; type: cell-based; settings: Homo sapiens; K562/Adr drug-resistant cells
Description: (§5) HL-60/ADR, MCF-7/ADR, K562/ADR, Bel-7402/5-FU, KBV200, SMMC-7721/Adr were respectively chemotherapeutics Adriamycin (ADR), 5-Fluorouracil (5-FU) or vincristine (VCR) drug-resistant sub-stains of HL-60, MCF-7, K562, Bel-7402, KB, SMMC-7721 cells (all from Chinese Academy of Medical Sciences). NB4-R2 was all trans-retinoic acid (ATRA) drug-resistant sub-stain (from Pathophysiology Research Department of Shanghai JiaoTong University). The main drug-resistance mechanism of K562/ADR was high expression of P-glycoprotein (P-gp), along with increased expression of Bcl-2. In addition to high expression of P-gp, the drug-resistance mechanism of MCF-7/ADR also related to the high expression of Breast Cancer Resistant Protein (BCRP). The main drug-resistance mechanism of HL-60/ADR was high expression of Multidrug Resistance Protein 1 (MRP1), along with high expression of Bcl-2, Bcl-xL. […] The main drug-resistance mechanism of KBV200 was high expression of P-gp and its increased activity. The drug-resistance mechanism of NB4-R2 on ATRA was mutation in the RAR gene locus.
as §1, §2, §3, §4

KB [1] = experiment: Growth inhibition of sensitive and drug-resistant cell lines (IC50), KB; type: cell-based; settings: Homo sapiens; KB cells, Table 1
Experimental: (§6) In the following Examples, the cell lines used were H1299, H446 (human lung cancer cell line), KB (human oral cavity carcinoma cell line), NB4, HL-60 (human leukemic cell line), U251 ? U87MG (human glioblastoma cell line), MCF-7 (human breast carcinoma cell line), Bel-7402 and SMMC7721 (human hepatic cellular cancer cell line), SW620 (human colon carcinoma cell line), HDF (human dermis fibroblast), HUVEC (human umbilical vein endothelial cell line) and Kasumi-1 (human acute myeloid leukaemia cell line), all from American Type Culture Collection (ATCC).
as §1, §2, §3, §4

KBv200 = experiment: Growth inhibition of sensitive and drug-resistant cell lines (IC50), KBv200; type: cell-based; settings: Homo sapiens; KBv200 drug-resistant cells
Description: as §5, §1, §2, §3, §4

MCF-7 = experiment: Growth inhibition of sensitive and drug-resistant cell lines (IC50), MCF-7; type: cell-based; settings: Homo sapiens, MCF7; MCF-7 cells
Experimental: as §6, §1, §2, §3, §4

MCF-7/Adr = experiment: Growth inhibition of sensitive and drug-resistant cell lines (IC50), MCF-7/Adr; type: cell-based; settings: Homo sapiens, NCI/ADR-RES; MCF-7/Adr drug-resistant cells
Description: as §5, §1, §2, §3, §4

Bel-7402 [2] = experiment: Growth inhibition of sensitive and drug-resistant cell lines (IC50), Bel-7402; type: cell-based; settings: Homo sapiens; Bel-7402 cells, Table 1
Experimental: as §6, §1, §2, §3, §4

Bel-7402/5-Fu = experiment: Growth inhibition of sensitive and drug-resistant cell lines (IC50), Bel-7402/5-Fu; type: cell-based; settings: Homo sapiens, Bel7402/5-FU; Bel-7402/5-Fu drug-resistant cells
Description: as §5, §1, §2, §3, §4

SMMC-7721 = experiment: Growth inhibition of sensitive and drug-resistant cell lines (IC50), SMMC-7721; type: cell-based; settings: Homo sapiens; SMMC-7721 cells
Experimental: as §6, §1, §2, §3, §4

SMMC-7721/Adr = experiment: Growth inhibition of sensitive and drug-resistant cell lines (IC50), SMMC-7721/Adr; type: cell-based; settings: Homo sapiens; SMMC-7721/Adr drug-resistant cells
Description: as §5, §1, §2, §3, §4

HUVEC = experiment: Vascular endothelial cell inhibition assay (CCK-8), HUVEC; type: cell-based; settings: Homo sapiens, 72 h
Experimental: (§7) 2×10^3 cells were seeded into a 96-well plate and cultured for 24 h. S1-S6 of different concentrations (0, 0.01, 0.1, 0.5, 1, 2.5, 5, 10, 20, 40, 80, 160 μg/ml, respectively) were added and incubated for 72 h, n=6 for each concentration. The inhibition of cell proliferation was detected by CCK-8 assay, the results were calculated as IC50, as describe in Example 3.

HDF = experiment: Vascular endothelial cell inhibition assay (CCK-8), HDF; type: cell-based; settings: Homo sapiens, 72 h
Experimental: as §7

KB [3] = experiment: Vascular endothelial cell inhibition assay (CCK-8), KB; type: cell-based; settings: Homo sapiens, 72 h, CCK-8, Table 2
Experimental: as §7

Bel-7402 [4] = experiment: Vascular endothelial cell inhibition assay (CCK-8), Bel-7402; type: cell-based; settings: Homo sapiens, 72 h, CCK-8, Table 2
Experimental: as §7

[5] = tested on: secretion of VEGF in H1299 cell; experiment: VEGF in supernatant of tumor cell H1299 culture (VEGF-ELISA); type: cell-based, human; settings: H1299, compound 5 μg/ml, 24 h; for inhibition at 5 µg/mL: Homo sapiens, NCI-H1299, read-out: Inhibition rate of VEGF secretion
Experimental: Assay of vascular endothelial cell growth factor (VEGF) in supernatant of tumor cell H1299 culture. The cell was seeded into a 24-well plate (n=3 for each sample). H1299 cell was treated with S1-S6 respectively and cultured for 24 h. The culture supernatants from each group were collected and operated according to the instruction of VEGF-ELISA kit (JIN MEI Corporation). The samples were added, incubated, washed and detected at 450 nm for OD values of each sample. The standard curve was obtained by using different dose of VEGF standards and the secretory volume of VEGF in the supernatant was calculated.

[6] = tested on: H1299, H446, U251, U87MG, Bel-7402 and Kasumi-1 cells; experiment: Inhibition effects on proliferation (CCK-8), various human cancer cells; type: cell-based; settings: FIG. 2, 68 h
Experimental: as §1

[7] = tested on: drug-resistant cells of different mechanisms and sensitive cells; experiment: Overcome drug resistance: efficacy on drug-resistant cells compared with sensitive cells; type: cell-based, human; settings: table 1 and FIG. 3
Experimental: as §2, §3

HL-60, H1299, U251 cells = experiment: Inducing cell death (Rh123/PI flow cytometry); type: cell-based, human; settings: 48 h, FIG. 5
Experimental: S1-S6 of different concentrations (as shown in FIG. 5) were added into HL-60, H1299, U251 cells under good growing conditions. The cells were cultured for 48 h, and collected. The cells were incubated with rhodamine 123 (Rh123) of the final concentration of 10 μg/ml for 20 min at 37° C., and then washed with pre-cooled PBS twice. The cells were suspended into PBS, and PI of final concentration of 25 μg/ml was added. After incubated in the dark at room temperature for 15 min, mitochondria membrane potential and PI positive cells were detected by flow cytometry, the death rate was calculated as the rate of PI positive cells.

[8] = tested on: U87MG, H1299 and HL-60 heterograft tumors; experiment: Inhibition of the growth of nude mouse heterograft tumors; type: in vivo, Balb/c male nude mice; settings: intraperitoneal; S4 25 mg/kg, S6 30 mg/kg, S1 32 mg/kg, BP 250 mg/kg; 4 weeks; FIG. 9
Experimental: Experimental grouping: Balb/c male nude mice were used, each weighted 18-22 g, and three assays were performed. The mice were seeded with U87MG, H1299 and HL-60 respectively. The animals were divided into three groups for each experiment, one as control, one was administered with the dimeric phthalide compounds, and one was administered with monomers of phthalide compound, 6 animals for each group.
For the group which was administered with monomers of phthalide compound, we used n-butylidenephthalide (BP) (Sigma) as active ingredient for tumor suppression, the compound had the structure as follows:
Experimental Process The H1299, HL-60 or U87MG cells growing in logarithmic phase were used. […] When the tumors had gown into 0.1-0.5 cm^3 (about 7-10 days), the animals were intraperitoneal injected with the dimeric phthalide compound S4 (25 mg/kg), S6 (30 mg/kg), S1 (32 mg/kg), each 200 μl; for the group of monomers of phthalide compound, the mice were intraperitoneal injected with n-butylidenephthalide (250 mg/kg); the control group was administered with equal volume of vehicle. The animals were sacrificed after 4 weeks, and the subcutaneous tumors were separated. Photographs were taken (FIG. 9A) and the tumors were weighted (FIG. 9B).

IC50 (K562) [µg/mL]	IC50 (K562/Adr) [µg/mL]	IC50 (KB [1]) [µg/mL]	IC50 (MCF-7) [µg/mL]	IC50 (MCF-7/Adr) [µg/mL]	IC50 (Bel-7402 [2]) [µg/mL]	IC50 (Bel-7402/5-Fu) [µg/mL]	IC50 (SMMC-7721) [µg/mL]	IC50 (SMMC-7721/Adr) [µg/mL]	IC50 (KB [3]) [µg/mL]	IC50 (Bel-7402 [4]) [µg/mL]	SMILES	IC50 (KBv200) [µg/mL]	IC50 (HUVEC) [µg/mL]	IC50 (HDF) [µg/mL]	Supernatant VEGF [5] [ng/ml/10^6 cells]	inhibition at 5 µg/mL [5] [%]	inhibition effect on proliferation of various human cancer cells [6]	efficacy on drug-resistant cells compared with sensitive cells [7]	inducing decrease of cell mitochondria membrane potential and cell death (HL-60, H1299, U251 cells)	tumor inhibition effect [8]
11.5 ± 0.831 (≈ 30.3 µM)	12.4 ± 1.01 (≈ 32.5 µM)	15.5 ± 3.22 (≈ 40.8 µM)	18.4 ± 2.8 (≈ 48.5 µM)	20.3 ± 2.12 (≈ 53.4 µM)	16.4 ± 1.94 (≈ 43.2 µM)	17.6 ± 3.68 (≈ 46.1 µM)	19.4 ± 3.12 (≈ 51 µM)	22.7 ± 2.55 (≈ 59.6 µM)	21.4 (≈ 56.2 µM)	30.4 (≈ 79.9 µM)	CCC/C=C1\OC(=O)C2=C1CCC1C2[C@@]23CC[C@@H]1C=C2C(=O)O/C3=C\CCC (stereo partly drawn) [S4]	17.4 ± 2.03 (≈ 45.9 µM)	4.14 (≈ 10.9 µM)	82.2 (≈ 216 µM)	234.00 ± 34.03	37.3	best inhibition effects on most of the cancer cells	the best effect	best effect of inducing cell death	significant tumor inhibition effects
18.4 ± 0.87 (≈ 48.2 µM)	18.3 ± 0.762 (≈ 47.9 µM)	16.4 ± 2.05 (≈ 42.9 µM)	28.5 ± 1.91 (≈ 74.6 µM)	29.2 ± 2.14 (≈ 76.4 µM)	30.2 ± 2.17 (≈ 79 µM)	28.1 ± 4.02 (≈ 73.4 µM)	36 ± 3.92 (≈ 94.2 µM)	35.2 ± 2.33 (≈ 92.1 µM)	36 (≈ 94.1 µM)	29.7 (≈ 77.6 µM)	CCC/C=C1\OC(=O)C2=CC3CC[C@]21C1C2=C(CC[C@@H]31)C(CCCC)OC2=O (stereo partly drawn) [S5]	19.8 ± 1.05 (≈ 51.8 µM)	4.04 (≈ 10.6 µM)	75.8 (≈ 198 µM)	236.32 ± 24.02	36.7	–	–	–	–
10.3 ± 0.597 (≈ 26.2 µM)	11.8 ± 0.995 (≈ 29.9 µM)	13 ± 2.5 (≈ 32.9 µM)	22.4 ± 2.03 (≈ 56.9 µM)	24.5 ± 2.09 (≈ 62.1 µM)	22.6 ± 3.01 (≈ 57.3 µM)	24 ± 2.66 (≈ 60.8 µM)	24 ± 1.87 (≈ 60.8 µM)	23 ± 2.76 (≈ 58.2 µM)	26.3 (≈ 66.6 µM)	30 (≈ 76.1 µM)	CCC/C=C1\OC(=O)C2=C1CCC1C2C2(OC(=O)C3=C2CCC=C3)C1(C)CCC (stereo not drawn) [S6]	12.2 ± 2.15 (≈ 31 µM)	4.27 (≈ 10.8 µM)	136 (≈ 344 µM)	237.25 ± 22.38	36.4	–	the best effect	–	significant tumor inhibition effects
